{
  "source": "patent US20240299353A1",
  "about": "“COMPOSITIONS AND METHODS FOR TREATING […] 5-MEO-DMT” (Alvarius Pharmaceuticals Ltd., priority 2021, published 2024)",
  "tested_on": "hippocampal proteins",
  "assay": "Hippocampal LC-MS/MS proteomics and PANTHER pathway overrepresentation",
  "format": "in vivo, Male Wistar rats",
  "conditions": "hippocampus",
  "procedure": "These treatment groups were used for the molecular assessment of addiction-linked markers.\nDue to incompatibilities between components of the lysis buffer in the High-Performance Liquid Chromatography (HPLC) mass spectrometer the samples were first precipitated in 100% (w/v) Trichloroacetic acid (TCA). 1 volume of TCA stock was added to 4 volumes of protein sample. The mixture was incubated for 10 mins at 4° C. before centrifugation at 14,000 RPM for 5 mins. The supernatant was discarded and the pellet was washed in acetone. The acetone was then discarded and the pellet was air-dried before resuspension in 6M urea (Sigma) made in 50 mM ammonium bicarbonate (ABC, Sigma). 100 mM dithiothreitol (DTT) was added to the sample for a final concentration of 5 mM and the sample was incubated while vortexing at 60° C. for 30 mins. Next, 200 mM iodoacetemide (IAA, Sigma) solution was added and the sample was incubated in the dark at room temperature for 30 mins. The sample was then diluted with 50 mM ABC to give a final concentration of ≤2M Urea before the addition of trypsin. 50 μl of reduced, alkylated sample was added to a vial of trypsin singles, proteomic grade (Sigma) and incubated at 37° C. overnight while vortexing. 1% acetic acid (AA) was added to the sample to stop the trypsination the following day. Sample clean-up was performed using Stage Tips for a 10 μl pipette with a 0.6 μl C18 resin (Merck) and clean up was carried out as follows; Tip was equilibrated (10 μl of 50% acetonitrile (ACN) in 0.1% trifluoroacetic acid (TFA) was aspirated into the tip and dispensed to waste x2, 10 μl of 0.1% TFA was aspirated and dispensed to waste x2), peptides were bound to resin and washed (10 μl of sample was aspirated and dispensed x5 cycles, 10 μl of 0.1% TFA was aspirated and dispensed to waste x2) before being eluted into a collecting tube containing 30 μl of 50% ACN in 0.1% TFA (aspirate and dispense the sample through Stage Tip x3). This process was repeated three times for each sample using the same Stage Tip and collection tube. Samples were dried in a vacuum centrifuge for 30 mins at 60° C. and resuspended in 30 μl of Buffer A (97% water, 2.5% ACN and 0.5% AA) and stored at −20° C.\nDigested samples were run on a Thermo Scientific Q Exactive mass spectrometer connected to a Dionex Ultimate 3000 (RSLCnano) chromatography system. Tryptic peptides were resuspended in 0.1% formic acid. Each sample was loaded onto a fused silica emitter (75 μm ID, pulled using a laser puller (Sutter Instruments P2000)), packed with Recrocil Pur C18 (1.9 μm) reverse phase media and was separated by an increasing acetonitrile gradient over 47 mins at a flow rate of 250 nL/min. The mass spectrometer was operated in positive ion mode with a capillary temperature of 320° C., and with a potential of 2300V applied to the frit. All readings were acquired with the mass spectrometer operating in automatic data dependent switching mode. A high resolution (70,000) MS scan was performed using the Q Exactive to select the most intense ions prior to MS/MS analysis using Higher-energy collisional dissociation (HCD). To identify peptides and proteins the MS/MS spectra were searched against the rat UniProt database. The database searches were performed with carbamidomethylation (C) as a fixed modification and acetylation (protein N terminus) and oxidation (M) as variable modifications. Filtering by a false discovery rate (FDR) was applied for peptides and proteins (0.01). For the generation of label-free quantitative (LFQ) ion intensities for protein profiles, signals of corresponding peptides in different LCMS/MS runs were matched by MaxQuant.\nThe Perseus statistical software contained in the MaxQuant package was used to analyze ion intensities (LFQ Intensity). Protein identities were filtered to eliminate the identifications from the reverse database, only identified by site and common contaminants.",
  "note": "Values joined by “and” are separate entries in the source; they are usually repeats but may differ in a detail not shown here. Equal entries are not always repeated.",
  "data": [
    {"smiles": "COc1ccc2[nH]cc(CCN(C)C)c2c1", "note": "[5-MeO-DMT, 5-methoxy-N,N-dimethyltryptamine]", "values": [
      {"measurement": "of the 118 5-MeO-DMT differentially expressed proteins, shared with the combination", "setting": "10 mg/kg 5-MeO-DMT", "value": 45, "unit": "proteins"},
      {"measurement": "pathways significantly overrepresented (PANTHER)", "setting": "10 mg/kg 5-MeO-DMT", "value": 16, "unit": "pathways"},
      {"measurement": "top overrepresented pathways", "setting": "10 mg/kg 5-MeO-DMT", "value": "altered protein translation and synthesis"},
      {"measurement": "of the 120 5-MeO-DMT differentially expressed proteins, shared with the combination", "setting": "20 mg/kg 5-MeO-DMT", "value": 57, "unit": "proteins"},
      {"measurement": "pathways significantly overrepresented (PANTHER)", "setting": "20 mg/kg 5-MeO-DMT", "value": 24, "unit": "pathways"},
      {"measurement": "top overrepresented pathways", "setting": "20 mg/kg 5-MeO-DMT", "value": "regulation of synapse organisation, structure and activity as well as modulating chemical transmission"},
      {"measurement": "differentially expressed proteins vs saline+vehicle", "setting": "24 h, 10 mg/kg 5-MeO-DMT", "value": 118, "unit": "proteins"},
      {"measurement": "differentially expressed proteins shared between the two concentrations", "setting": "24 h, 10 mg/kg and 20 mg/kg 5-MeO-DMT alone", "value": 32, "unit": "proteins"},
      {"measurement": "differentially expressed proteins vs saline+vehicle", "setting": "24 h, 20 mg/kg 5-MeO-DMT", "value": 120, "unit": "proteins"},
      {"measurement": "differentially expressed proteins vs saline+vehicle", "setting": "24 h, cocaine+10 mg/kg 5-MeO-DMT, 10 mg/kg", "value": "541 proteins and 544 proteins"},
      {"measurement": "differentially expressed proteins vs saline+vehicle", "setting": "24 h, cocaine+20 mg/kg 5-MeO-DMT", "value": 221, "unit": "proteins"},
      {"measurement": "of the 340 cocaine differentially expressed proteins, remaining in the combination", "setting": "cocaine+10 mg/kg 5-MeO-DMT", "value": 245, "unit": "proteins"},
      {"measurement": "pathways significantly overrepresented (PANTHER)", "setting": "cocaine+10 mg/kg 5-MeO-DMT", "value": 309, "unit": "pathways"},
      {"measurement": "top overrepresented pathways", "setting": "cocaine+10 mg/kg 5-MeO-DMT", "value": "NAD and NADH metabolism, positive regulation of lamellipodium assembly and modulation of synaptic signaling"},
      {"measurement": "of the 340 cocaine differentially expressed proteins, remaining in the combination", "setting": "cocaine+20 mg/kg 5-MeO-DMT", "value": 85, "unit": "proteins"},
      {"measurement": "pathways significantly overrepresented (PANTHER)", "setting": "cocaine+20 mg/kg 5-MeO-DMT", "value": 67, "unit": "pathways"},
      {"measurement": "top overrepresented pathways", "setting": "cocaine+20 mg/kg 5-MeO-DMT", "value": "positive regulation of telomerase activity, negative regulation of apoptosis and regulation of synapse organization, structure and activity"},
      {"measurement": "differentially expressed proteins shared between the combination groups", "setting": "cocaine+10 and cocaine+20 mg/kg 5-MeO-DMT", "value": 153, "unit": "proteins"}
    ]},
    {"smiles": "COC(=O)[C@H]1[C@@H](OC(=O)c2ccccc2)C[C@@H]2CC[C@H]1N2C.Cl", "note": "[cocaine, cocaine hydrochloride, reference compound]", "values": [
      {"measurement": "differentially expressed proteins vs saline+vehicle", "setting": "24 h, cocaine+vehicle, p<0.05, fold change ≥±20%", "value": 340, "unit": "proteins"},
      {"measurement": "pathways significantly overrepresented (PANTHER)", "setting": "cocaine group", "value": 157, "unit": "pathways"},
      {"measurement": "top overrepresented pathways", "setting": "cocaine-experienced animals", "value": "regulation of metabolic processes, protein translation and synaptic signalling"}
    ]}
  ]
}
